Consider 10 molecules from ChEMBL document CHEMBL1201862, “PubChem BioAssay data set” (2004).

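Exposure lasted 48 hours, with cells grown in 96-well plates and compounds tested at five concentrations. Here, GI50 denotes the concentration required for 50% inhibition of growth.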 The source made the active and inactive calls. Rule as the data show it: active = GI50 up to about 1.1 µM and inactive = higher.

What all share (experiment): NCI tumour cell line growth inhibition, 48 h
The test system of test [1] is DU-145.
The subject of test [2] is OVCAR-8.
The subject of test [3] is TK-10.
Test [4] concerns M14.
In test [5] the test system is MDA-N.
Test [6] relates to T47D.
Test [7] deals with SK-MEL-28.
For test [8], the system named is MDA-MB-435.
The subject of test [9] is SNB-75.
Test [10] has as its system RXF 393.
The subject of test [11] is SW-620.
Test [12] concerns Hs-578T.
Test [13] relates to KM12.
Test [14] concerns MCF7.
The subject of test [15] is A498.
For test [16], the system named is SF-295.
Test [17] has as its system PC-3.
Test [18] deals with OVCAR-4.
Test [19] deals with UACC-257.
For test [20], the system named is SNB-19.

`O=C(Nc1cc(C(=O)Nc2cccc(S(=O)(=O)O)c2)cc(C(=O)Nc2cccc(S(=O)(=O)O)c2)c1)c1cccc(C(=O)Nc2cc(C(=O)Nc3cccc(S(=O)(=O)O)c3)cc(C(=O)Nc3cccc(S(=O)(=O)O)c3)c2)c1`: the GI50 in test [1] was > 100 µM (inactive); in test [2] it was > 100 µM (inactive); in test [3], > 100 µM (inactive); in test [4], 97.1 µM (inactive); in [5], > 100 µM (inactive); in [6], > 100 µM (inactive). The GI50 in test [7], in [8], in test [9], in [10], in [11] and in [12] was > 100 µM (inactive) each time. For the same molecule, the GI50 in [13] was 30.7 µM (inactive); in test [14] it was > 100 µM (inactive); in test [15], 84.7 µM (inactive); in [16], > 100 µM (inactive); in test [17], > 100 µM (inactive); in test [18] it was > 100 µM (inactive). Also, the GI50 in test [19] was > 100 µM (inactive).

For the molecule `COc1ccc(/C=C2/C(=O)C(c3ccccc3)N(c3ccccc3)C2=O)cc1OC` (configuration not stated), the GI50 in test [1], in test [2], in [3], in test [4], in [5] and in [6] was > 10 µM (inactive) throughout. Moreover, the GI50 in [7], in test [8], in [10], in test [11], in test [12] and in test [13] was > 10 µM (inactive) each time. Besides, the GI50 was > 10 µM (inactive) in test [14]; 1.41 µM (inactive) in test [15]; > 10 µM (inactive) in test [16]; > 10 µM (inactive) in [17]; > 10 µM (inactive) in [20]; > 10 µM (inactive) in [18]. The GI50 in test [19] is > 10 µM (inactive).

Consider `O=[N+]([O-])c1ccc2sc(/C=N/c3cnccn3)cc2c1`, for which the GI50 in [1] was 21.5 µM (inactive); in test [2], 45.4 µM (inactive); in test [3], 30.3 µM (inactive); in test [4], 37.2 µM (inactive); in test [5], 24.1 µM (inactive); in test [6], 0.714 µM (active). Besides, the GI50 is 28.3 µM (inactive) in test [7]; 18.4 µM (inactive) in [8]; 0.861 µM (active) in test [9]; 0.597 µM (active) in test [10]; 25 µM (inactive) in [11]; 16.7 µM (inactive) in test [12]. For the same molecule, the GI50 in test [13] is 57.5 µM (inactive); in test [14], 5.74 µM (inactive); in [15], 27.4 µM (inactive); in test [16], 35.4 µM (inactive); in [17], 31 µM (inactive); in test [20], 65 µM (inactive). The GI50 in test [19] is 27.8 µM (inactive).

For `Cc1ncc([N+](=O)[O-])n1CCNS(=O)(=O)CCCn1ccnc1[N+](=O)[O-]`, the GI50 in [1], in test [2], in test [3], in test [4], in test [5] and in test [6] was > 100 µM (inactive) each time. The GI50 in [7], in test [8], in [9], in test [10], in test [11] and in test [12] was > 100 µM (inactive) each time. Besides, the GI50 in test [13], in [14], in test [15], in [16], in test [17] and in [18] was > 100 µM (inactive) each time. Moreover, the GI50 in test [19] was > 100 µM (inactive).

For `CC(C)C1CC(CO)(CNc2cc(Cl)nc(N)n2)C1` (configuration not stated), the GI50 in test [1] is > 100 µM (inactive); in test [2], 88.9 µM (inactive); in test [3], > 100 µM (inactive); in [5], 57.7 µM (inactive); in [6] it was 0.805 µM (active); in test [7] it was > 100 µM (inactive). The GI50 in [8] is 46.1 µM (inactive); in test [10], 19.7 µM (inactive); in [11], > 100 µM (inactive); in test [12] it was 25.6 µM (inactive); in test [13] it was > 100 µM (inactive); in test [14], 15 µM (inactive). The GI50 in test [15] is 4.49 µM (inactive); in [16] it was 6.22 µM (inactive); in test [17], 71 µM (inactive); in test [20], > 100 µM (inactive); in test [18] it was 20.7 µM (inactive); in test [19], 1.15 µM (inactive).

For `C1CSC(Sc2nc(SC3=NCCS3)nc(SC3=NCCS3)n2)=N1`, the GI50 in [1], in [2], in test [3], in [4], in test [5] and in test [6] was > 100 µM (inactive) each time. Further, the GI50 in test [7], in test [8], in test [10], in test [11], in [12] and in [13] was > 100 µM (inactive) throughout. Further, the GI50 in [14], in test [15], in test [16], in test [17], in [20] and in test [18] was > 100 µM (inactive) in each case. The GI50 in test [19] is > 100 µM (inactive).

Consider `CCCC(=O)NC1=C(NCC)C(=O)c2ccccc2C1=O`, for which the GI50 in test [1] is > 100 µM (inactive); in test [3], > 100 µM (inactive); in test [4] it was > 10 µM (inactive); in [5] it was 20.8 µM (inactive); in test [6], > 100 µM (inactive); in [7], 95.7 µM (inactive). For the same molecule, the GI50 in [8] is 25.2 µM (inactive); in test [9], > 100 µM (inactive); in [10], 48.3 µM (inactive); in test [11] it was 33.4 µM (inactive); in test [12], > 100 µM (inactive); in [13], 52.4 µM (inactive). Further, the GI50 in test [14] is 63.5 µM (inactive); in test [16] it was > 100 µM (inactive); in [17], 40.9 µM (inactive); in test [20], > 100 µM (inactive); in [18], > 100 µM (inactive); in test [19] it was 39.4 µM (inactive).

`COC(=O)C1(C)CCCC2(C)c3cc(OC)ccc3C(=O)C(Br)C12` (configuration not stated): the GI50 in [1] is > 10 µM (inactive); in test [2], 1.99 µM (inactive); in [3], > 10 µM (inactive); in test [4], 3.35 µM (inactive); in test [5], 3.81 µM (inactive); in [6] it was > 10 µM (inactive). Moreover, the GI50 in test [7] was > 10 µM (inactive); in test [8] it was 4.19 µM (inactive); in test [10], 9.23 µM (inactive); in test [11], 2.15 µM (inactive); in test [12], > 10 µM (inactive); in test [13] it was > 10 µM (inactive). For the same molecule, the GI50 is 1.95 µM (inactive) in test [14]; > 10 µM (inactive) in test [15]; > 10 µM (inactive) in test [16]; 9.73 µM (inactive) in test [17]; > 10 µM (inactive) in test [20]; > 10 µM (inactive) in [19].

Take `COc1cc(C[S+]([O-])c2ccc(O)cc2)cc(OC)c1OC` (configuration not stated): the GI50 in [1], in test [2], in test [3], in test [4], in test [5] and in test [6] was > 100 µM (inactive) each time. The GI50 in test [7], in [8], in test [9], in test [10], in test [11] and in test [12] was > 100 µM (inactive) throughout. Moreover, the GI50 in [13], in test [14], in test [15], in [16], in test [17] and in [20] was > 100 µM (inactive) throughout. For the same molecule, in test [19], the GI50 was > 100 µM (inactive).

As to `O=C(c1ccccc1)c1ccc2[nH]c(-c3c(Cl)c(Cl)c(Cl)c(Cl)c3C(=O)N/N=C\C=C\c3ccccc3)nc2c1`, the GI50 is 73.1 µM (inactive) in [1]; 60 µM (inactive) in test [2]; 86.9 µM (inactive) in test [3]; 53.5 µM (inactive) in test [4]; 32.1 µM (inactive) in test [5]; 16.5 µM (inactive) in test [6]. Moreover, the GI50 in test [7] was 51.3 µM (inactive); in test [8], 30.1 µM (inactive); in test [9] it was 59.4 µM (inactive); in test [10], 21.8 µM (inactive); in test [11], 54.1 µM (inactive); in test [12], 52.7 µM (inactive). For the same molecule, the GI50 in test [13] was 61.4 µM (inactive); in [14] it was 20.7 µM (inactive); in test [16], 38.9 µM (inactive); in test [17] it was 42.3 µM (inactive); in test [20] it was 66.2 µM (inactive); in test [18], 26.1 µM (inactive). For the same molecule, in test [19], the GI50 is 83.9 µM (inactive).
